This note sets out measurements from patent US6008225A, “Derivatives of antibiotic GE2270 factors C2a, D2 and E” (BioSearch Italia, S.p.A., priority 1996, dated 1999).

In test [1] the test system is Enterococcus faecalis ATCC 6919. The test is described as follows: MIC by microbroth dilution, Enterococcus faecalis. To be noted: Enterococcus faecalis ATCC 6919 (code 149); 0.01% BSA; inocula about 10^4 (1-4), about 5×10^5 cfu/ml (5, 6); 18-24 h. In kind it is cell-based.
For test [2], the system named is Haemophilus influenzae type b ATCC19418. The test is described as follows: MIC by microbroth dilution, Haemophilus influenzae. In kind it is cell-based. The settings on record: Haemophilus influenzae type b ATCC19418 (code 970); 5% CO2, 48 h; 0.01% BSA; inocula about 10^4 (1-4), about 5×10^5 cfu/ml (5, 6).
Test [3] relates to Strep. pneumoniae UC41. In words: MIC by microbroth dilution, Strep. pneumoniae. In kind it is cell-based, Streptococcus pneumoniae. To be noted: Strep. pneumoniae UC41 (code 44); Todd Hewitt broth; 0.01% BSA; inocula about 10^4 (1-4), about 5×10^5 cfu/ml (5, 6); 18-24 h.
In test [4] the test system is Bacteroides fragilis ATCC 25285. The test is described as follows: MIC by microbroth dilution, Bacteroides fragilis. To be noted: Bacteroides fragilis ATCC 25285 (code 1011); anaerobe, 48 h; 0.01% BSA; inocula about 10^5 (1-4), about 5×10^5 cfu/ml (5, 6). In kind it is cell-based.
The subject of test [5] is Staph. aureus Tour. In words: MIC by microbroth dilution, Staph. aureus Tour. In kind it is cell-based, Staphylococcus aureus. To be noted: Staph. aureus Tour (code 165), 0.01% BSA, read 18-24 h.
In test [6] the test system is Staph. aureus Smith. The test is described as follows: MIC by microbroth dilution, Staph. aureus Smith. To be noted: Staph. aureus Smith (code 819); 0.01% BSA; inocula about 10^4 (1-4), about 5×10^5 cfu/ml (5, 6); 18-24 h. It counts as cell-based, Staphylococcus aureus.
The subject of test [7] is Klebsiella pneumoniae ISM. In words: MIC by microbroth dilution, Klebsiella pneumoniae. In kind it is cell-based. To be noted: Klebsiella pneumoniae ISM (code 142); 0.01% BSA; inocula about 10^4 (1-4), about 5×10^5 cfu/ml (6); 18-24 h.
The subject of test [8] is Strep. pyogenes C203. In words: MIC by microbroth dilution, Strep. pyogenes. To be noted: Strep. pyogenes C203 (code 49); Todd Hewitt broth; 0.01% BSA; inocula about 10^4 (1-4), about 5×10^5 cfu/ml (5, 6); 18-24 h. It counts as cell-based, Streptococcus pyogenes.
Test [9] has as its system Escherichia coli SKF 12140. The test is described as follows: MIC by microbroth dilution, Escherichia coli. In kind it is cell-based. To be noted: Escherichia coli SKF 12140 (code 47); 0.01% BSA; inocula about 10^4 (1-4), about 5×10^5 cfu/ml (5, 6); 18-24 h.
The test system of test [10] is Neisseria gonorrhoeae ISM 68/126. In words: MIC by microbroth dilution, Neisseria gonorrhoeae. It counts as cell-based. The settings on record: Neisseria gonorrhoeae ISM 68/126 (code 997); 5% CO2, 48 h; 0.01% BSA; inocula about 10^4 (1-4), about 5×10^5 cfu/ml (5, 6).
Test [11] relates to Proteus vulgaris X19H ATCC881. In words: MIC by microbroth dilution, Proteus vulgaris. It counts as cell-based. To be noted: Proteus vulgaris X19H ATCC881 (code 79); 0.01% BSA; inocula about 10^4 (1-4), about 5×10^5 cfu/ml (5, 6); 18-24 h.
The test system of test [12] is Pseudomonas aeruginosa ATCC10145. The test is described as follows: MIC by microbroth dilution, Pseudomonas aeruginosa. In kind it is cell-based. The settings on record: Pseudomonas aeruginosa ATCC10145 (code 4); 0.01% BSA; inocula about 10^4 (1-4), about 5×10^5 cfu/ml (5, 6); 18-24 h.
Test [13] has as its system Staph. haemolyticus clin. is. In words: MIC by microbroth dilution, Staph. haemolyticus. In kind it is cell-based, Staphylococcus haemolyticus. The settings on record: Staph. haemolyticus clin. is. (code 602); 0.01% BSA; inocula about 10^4 (1-4), about 5×10^5 cfu/ml (5, 6); 18-24 h.
In test [14] the test system is Propionibacterium acnes ATCC6919. The test is described as follows: MIC by microbroth dilution, Propionibacterium acnes. The settings on record: Propionibacterium acnes ATCC6919 (code 1014); anaerobe, 48 h; 0.01% BSA; inocula about 10^5 (1-4), about 5×10^5 cfu/ml (5, 6). It counts as cell-based.
Test [15] has as its system Clostridium perfringens ISS30543. It counts as cell-based. The settings on record: Clostridium perfringens ISS30543 (code 290); anaerobe, 48 h; 0.01% BSA; inocula about 10^5 (1-4), about 5×10^5 cfu/ml (5, 6).
The test system of test [16] is Staph. epidermidis ATCC 12228. The test is described as follows: MIC by microbroth dilution, Staph. epidermidis. It counts as cell-based, Staphylococcus epidermidis. To be noted: Staph. epidermidis ATCC 12228 (code 147); 0.01% BSA; inocula about 10^4 (1-4), about 5×10^5 cfu/ml (5, 6); 18-24 h.
Where [17] appears, read: inocula about 10^4 cfu/ml (compounds 1-4), about 5×10^5 cfu/ml (5, 6).

A value given as a limit tells only on which side of the number the result lay.

With `CCN(CC)Cc1sc2nc1C(=O)NCC(=O)NC(C(O)c1ccccc1)c1nc(cs1)-c1nc(cs1)-c1nc(-c3nc(C4=NC(C(=O)N5CCCC5C(N)=O)CO4)cs3)ccc1-c1nc(cs1)C(=O)NC(CC(=O)NC)c1nc(c(C)s1)C(=O)NC2C(C)C` (stereo not drawn) [Compound 1], the “MIC of the compounds” value was 0.06 µg/mL in [1]; above 128 µg/mL in test [2]; 1 µg/mL in test [3]; 64 µg/mL in test [4]; 0.25 µg/mL in test [5] (10^6 cfu/ml); 0.5 µg/mL in test [5] (30% b.s.). Also, the “MIC of the compounds” value in test [5] (setting [17]) is 0.13 µg/mL; in test [6], 0.13 µg/mL; in test [7], above 128 µg/mL; in [8], 4 µg/mL; in [9], above 128 µg/mL; in test [10], above 128 µg/mL. For the same compound, the “MIC of the compounds” value in [11] is above 128 µg/mL; in test [12], above 128 µg/mL; in test [13] it was 0.13 µg/mL; in test [14], 0.03 µg/mL; in test [15] it was 0.13 µg/mL.

With `CNC(=O)CC1NC(=O)c2csc(n2)-c2ccc(-c3nc(C4=NC(C(=O)N5CCCC5C(N)=O)CO4)cs3)nc2-c2csc(n2)-c2csc(n2)C(C(O)c2ccccc2)NC(=O)CNC(=O)c2nc(sc2CN(C)C)C(C(C)C)NC(=O)c2nc1sc2C` (stereo not drawn) [Compound 2], the “MIC of the compounds” value in [1] stood at 0.06 µg/mL; in [2], 8 µg/mL; in [3], 0.13 µg/mL; in test [4], 128 µg/mL; in test [5] (10^6 cfu/ml), 0.13 µg/mL; in test [5] (30% b.s.), 0.13 µg/mL. The “MIC of the compounds” value was 0.13 µg/mL in test [5] (setting [17]); 0.13 µg/mL in test [6]; above 128 µg/mL in test [7]; 0.5 µg/mL in test [8]; above 128 µg/mL in [9]; 4 µg/mL in test [10]. Also, the “MIC of the compounds” value was above 128 µg/mL in test [11]; above 128 µg/mL in [12]; 0.25 µg/mL in test [13]; 0.13 µg/mL in test [16]; 0.06 µg/mL in test [14]; 0.06 µg/mL in test [15].

As to `CNC(=O)C[C@@H]1NC(=O)c2csc(n2)-c2ccc(-c3nc(C4=N[C@H](C(=O)N5CCC[C@H]5C(N)=O)CO4)cs3)nc2-c2csc(n2)-c2csc(n2)C(C(O)c2ccccc2)NC(=O)CNC(=O)c2nc(sc2CN(C)CCN(C)C)[C@H](C(C)C)NC(=O)c2nc1sc2C` (stereo partly drawn) [Compound 3], the “MIC of the compounds” value in test [1] was 1 µg/mL; in test [2] it was above 128 µg/mL; in [3] it was 1 µg/mL; in test [4], above 128 µg/mL; in test [5] (10^6 cfu/ml), 4 µg/mL; in [5] (30% b.s.), 1 µg/mL. The “MIC of the compounds” value in [5] (setting [17]) is 1 µg/mL; in [6] it was 1 µg/mL; in test [7] it was above 128 µg/mL; in test [8], 2 µg/mL; in test [9], above 128 µg/mL; in test [10], above 128 µg/mL. The “MIC of the compounds” value is above 128 µg/mL in test [11]; above 128 µg/mL in test [12]; 8 µg/mL in test [13]; 8 µg/mL in test [16]; 0.5 µg/mL in test [14]; 4 µg/mL in test [15].

Take `CCSCc1sc2nc1C(=O)NCC(=O)NC(C(O)c1ccccc1)c1nc(cs1)-c1nc(cs1)-c1nc(-c3nc(C4=N[C@H](C(=O)N5CCC[C@H]5C(N)=O)CO4)cs3)ccc1-c1nc(cs1)C(=O)N[C@@H](CC(=O)NC)c1nc(c(C)s1)C(=O)N[C@H]2C(C)C` (stereo partly drawn) [Compound 4]: the “MIC of the compounds” value in [1] was 0.06 µg/mL; in [2], above 128 µg/mL; in test [3], 0.5 µg/mL; in test [4], above 128 µg/mL; in test [5] (setting [17]), 0.13 µg/mL; in test [6], 0.25 µg/mL. Moreover, the “MIC of the compounds” value in [7] was above 128 µg/mL; in test [8], 64 µg/mL; in test [9], above 128 µg/mL; in test [10] it was above 128 µg/mL; in [11], above 128 µg/mL; in test [12] it was above 128 µg/mL. Also, the “MIC of the compounds” value in [13] turned out to be 8 µg/mL; in [16], 4 µg/mL; in [14], 0.004 µg/mL; in test [15] it was 0.016 µg/mL.

On to `CCN(CC)CCNC(=O)[C@@H]1CCCN1C(=O)[C@@H]1COC(c2csc(-c3ccc4c(n3)-c3csc(n3)-c3csc(n3)C(C(O)c3ccccc3)NC(=O)CNC(=O)c3nc(sc3CO)[C@H](C(C)C)NC(=O)c3nc(sc3C)[C@H](CC(=O)NC)NC(=O)c3csc-4n3)n2)=N1` (stereo partly drawn) [Compound 5], for which the “MIC of the compounds” value in [1] came to 0.06 µg/mL; in [2], 8 µg/mL; in [3] it was 0.13 µg/mL; in test [4] it was 32 µg/mL; in test [5] (10^6 cfu/ml) it was 0.13 µg/mL; in test [5] (30% b.s.), 0.25 µg/mL. In addition, the “MIC of the compounds” value is 0.06 µg/mL in [5] (setting [17]); 0.13 µg/mL in test [6]; 0.13 µg/mL in test [8]; above 128 µg/mL in [9]; 32 µg/mL in test [10]; above 128 µg/mL in test [11]. Moreover, the “MIC of the compounds” value is above 128 µg/mL in test [12]; 0.13 µg/mL in test [13]; 0.13 µg/mL in [16]; 0.03 µg/mL in [14]; 0.06 µg/mL in test [15].

`CCN(CC)CCNC(=O)[C@@H]1CCCN1C(=O)[C@@H]1COC(c2csc(-c3ccc4c(n3)-c3csc(n3)-c3csc(n3)C(C(O)c3ccccc3)NC(=O)CNC(=O)c3nc(sc3CN(C)C)[C@H](C(C)C)NC(=O)c3nc(sc3C)[C@H](CC(=O)NC)NC(=O)c3csc-4n3)n2)=N1` (stereo partly drawn) [Compound 6]: the “MIC of the compounds” value in test [1] was 0.13 µg/mL; in test [2] it was above 128 µg/mL; in test [3] it was 0.13 µg/mL; in test [4] it was 64 µg/mL; in [5] (setting [17]) it was 0.13 µg/mL; in test [6], 0.13 µg/mL. The “MIC of the compounds” value was above 128 µg/mL in [7]; 0.13 µg/mL in test [8]; above 128 µg/mL in test [9]; 16 µg/mL in test [10]; above 128 µg/mL in test [11]; above 128 µg/mL in [12]. Besides, the “MIC of the compounds” value amounted to 0.5 µg/mL in test [13], 0.5 µg/mL in test [16], 16 µg/mL in [14] and 0.06 µg/mL in [15].
